{"source": "patent US7556794B2", "about": "“Pendant fatty acid imaging agents” (Molecular Insight Pharmaceuticals, Inc., priority 2002, dated 2009)", "assay": "Tissue distribution (radiometric analysis of excised organs) after tail vein injection of radiolabeled fatty acid analogs in rats", "type": "in vivo, Sprague Dawley rats", "settings": "rat", "procedure": "Pharmacokinetic characterization was accomplished by radiometric analysis of heart, blood, lung, kidney, liver and other tissue at various times following administration of the 99mTc-labeled fatty acid analogs to rats. […] Six new compounds were evaluated at up to four time points each (5, 15, 60, and 120 minutes) with a minimum of three animals per time point. Non-anesthetized animals were injected with 20-50 μCi in 100 μl via the tail vein and sacrificed at increasing time points post injection. The organs were excised and counted in a gamma counter. Experiments were also conducted to compare the effects of injection media using 10% ethanol, 10% bovine serum albumin and 7% ursodeoxycholic acid on distribution."}
{"smiles": "CC(CCCCCCCCCCCCc1ccc(I)cc1)CC(=O)O", "note": "(centres unmarked) [BMIPP]", "values": [{"measurement": "Percent injected dose per gram, Blood", "setting": "15-min post injection, blood", "result": "1.30 ± 0.19 Percent injected dose per gram"}, {"measurement": "Percent injected dose per gram, Heart", "setting": "15-min post injection, heart", "result": "4.60 ± 0.63 Percent injected dose per gram"}, {"measurement": "Percent injected dose per gram, Kidneys", "setting": "15-min post injection, kidneys", "result": "4.09 ± 0.82 Percent injected dose per gram"}, {"measurement": "Percent injected dose per gram, Liver", "setting": "15-min post injection, liver", "result": "2.97 ± 0.56 Percent injected dose per gram"}, {"measurement": "Percent injected dose per gram, Lung", "setting": "15-min post injection, lung", "result": "1.83 ± 0.22 Percent injected dose per gram"}, {"measurement": "heart-to-blood ratio", "setting": "at 15 minutes", "result": 2.2}, {"measurement": "heart-to-blood ratio", "setting": "at 60 minutes", "result": 1.6}, {"measurement": "blood retention / clearance (in words)", "setting": "blood", "result": "slow blood clearance"}, {"measurement": "heart accumulation / extraction (in words)", "setting": "heart", "result": "high extraction into the heart"}, {"measurement": "uptake in the heart", "setting": "heart, at 15 minutes", "result": 3.49, "unit": "percent per organ"}, {"measurement": "uptake in the heart", "setting": "heart, at 60 minutes", "result": 1.62, "unit": "percent per organ"}, {"measurement": "less heart uptake with ethanol injection media than with ursodeoxycholic acid", "setting": "heart, 10% ethanol versus 7% ursodeoxycholic acid injection media", "result": "~75", "unit": "%"}, {"measurement": "liver activity", "setting": "liver, end of the 45 minute period (60 minutes)", "result": 7.2, "unit": "percent per organ"}, {"measurement": "liver activity", "setting": "liver, start of the 45 minute period (15 minutes)", "result": 19.7, "unit": "percent per organ"}]}
